Activity calls are given as the source filed them. How the calls were made is not given here.
System: GENE-TOX genotoxicity assays, various organisms and cells
Assay: GENE-TOX mutagenicity studies
Conditions: for call: Assay Type: In vivo carcinogenicity studies
[1] = Species/Cell Type: Human, Assay Type: Sister-chromatid exchange (SCE) in vitro, Assay Code: SC1+, Evaluation Type: Evaluation B (Post-1980)
[2] = Species/Cell Type: Nonhuman, Assay Type: Sister-chromatid exchange (SCE) in vitro, Assay Code: SC2+, Evaluation Type: Evaluation B (Post-1980)
[3] = Species/Cell Type: Salmonella typhimurium (one or more of the five standard strains: TA98, TA100, TA1535, TA1537, and TA1538), Assay Type: Histidine reverse gene mutation, Ames assay, Assay Code: SAL-, Evaluation Type: Evaluation A (Pre-1980)
[4] = Species/Cell Type: Saccharomyces cerevisiae, Assay Type: Mitotic recombination or gene conversion, Assay Code: YEH-, Evaluation Type: Evaluation A (Pre-1980)
[5] = Species/Cell Type: Drosophila melanogaster, Assay Type: Sex-linked recessive lethal gene mutation, Assay Code: SRL+, Evaluation Type: Evaluation A (Pre-1980)
[6] = Species/Cell Type: Mammalian polychromatic erythrocytes, Assay Type: Micronucleus test, chromosome aberrations, Assay Code: MNT+, Evaluation Type: Evaluation A (Pre-1980)
[7] = Species/Cell Type: Nonhuman, Assay Code: CCGT, Evaluation Type: Evaluation A (Pre-1980)
[8] = Species/Cell Type: Human diploid fibroblasts, Assay Type: Unscheduled DNA synthesis (UDS) in vitro, DNA effects, Assay Code: UDH+, Evaluation Type: Evaluation A (Pre-1980)
[9] = Species/Cell Type: Salmonella typhimurium (one or more of the five standard strains: TA98, TA100, TA1535, TA1537, and TA1538), Assay Type: Histidine reverse gene mutation, Ames assay, Assay Code: SALT, Evaluation Type: Evaluation A (Pre-1980)
[10] = Species/Cell Type: Saccharomyces cerevisiae, Assay Type: Reverse gene mutation, Assay Code: YERT, Evaluation Type: Evaluation A (Pre-1980)
[11] = Species/Cell Type: Mouse, Sex: Male, Assay Type: Sperm morphology, Assay Code: SPI-, Evaluation Type: Evaluation A (Pre-1980)
[12] = Species/Cell Type: Nonhuman, Assay Code: CCG+, Evaluation Type: Evaluation A (Pre-1980)
[13] = Species/Cell Type: Nonhuman, Assay Code: CCG-, Evaluation Type: Evaluation A (Pre-1980)
[14] = Species/Cell Type: Salmonella typhimurium (one or more of the five standard strains: TA98, TA100, TA1535, TA1537, and TA1538), Assay Type: Histidine reverse gene mutation, Ames assay, Assay Code: SAL+*, Activation: With metabolic activation, Evaluation Type: Evaluation A (Pre-1980)

With `NC(=O)c1ccccc1` the mutagenic call [1] was “active; positive”, the mutagenic call (Species/Cell Type: Mammalian polychromatic erythrocytes, Assay Type: Micronucleus test, chromosome aberrations, Assay Code: MNT+U, Dose Response: Unconfirmed positive response, Evaluation Type: Evaluation B (Post-1980)) was “active; positive” and the mutagenic call [2] was “active; positive”.
In the case of `Cc1cccc(OC(=O)N(C)N=O)c1`, the mutagenic call (Species/Cell Type: Bacillus subtilis (H17 vs M45T), Assay Type: Rec-assay, spot test, DNA effects (bacterial DNA repair), Assay Code: REX+, Evaluation Type: Evaluation A (Pre-1980)) is reported as “active; positive” and the mutagenic call (Species/Cell Type: Escherichia coli WP2, Assay Type: Tryptophan reverse gene mutation, Assay Code: WP2+, Evaluation Type: Evaluation A (Pre-1980)) is reported as “active; positive”.
For `C1CCCCC1`, the mutagenic call [3] was “inactive; negative” and the mutagenic call (Species/Cell Type: Syrian hamster embryo (SA7/SHE) cells, Assay Type: Cell transformation, viral enhanced, Assay Code: CT7-, Evaluation Type: Evaluation A (Pre-1980)) was “inactive; negative”.
For `NC(=O)c1cccnc1`, the mutagenic call [1] was “active; positive” and the mutagenic call [2] was “active; positive”.
`Cc1ccc(Cl)cc1` was tested, and the mutagenic call [4] was “inactive; negative” and the mutagenic call [3] was “inactive; negative”.
`CC1=CC(=C(c2ccc(N)c(S(=O)(=O)O)c2)c2ccc(N)c(S(=O)(=O)O)c2)C=C(S(=O)(=O)O)C1=N` was tested, and the mutagenic call (Species/Cell Type: Bacillus subtilis (H17 vs M45), Assay Type: Rec-assay, spot test, DNA effects (bacterial DNA repair), Assay Code: REWT, Evaluation Type: Evaluation A (Pre-1980)) was “no conclusion”.
With `CC1CN1P(=O)(N1CC1C)N1CC1C` (stereo not given) the mutagenic call [5] was “active; positive”, the mutagenic call (Species/Cell Type: F1 mouse, Sex: Male, Assay Type: Sperm morphology, Assay Code: SPFT, Evaluation Type: Evaluation A (Pre-1980)) was “no conclusion” and the mutagenic call (Species/Cell Type: Hordeum vulgare (barley), Assay Type: Chromosome aberrations, Assay Code: HOC+, Evaluation Type: Evaluation A (Pre-1980)) was “active; positive”. For the same compound, the mutagenic call [6] was “active; positive”, the mutagenic call (Species/Cell Type: Mouse, Sex: Male, Assay Type: Sperm morphology, Assay Code: SPI+, Evaluation Type: Evaluation A (Pre-1980)) was “active; positive” and the mutagenic call (Species/Cell Type: Neurospora crassa, Assay Type: Forward gene mutation, Assay Code: NEF+, Evaluation Type: Evaluation A (Pre-1980)) was “active; positive”. The mutagenic call (Species/Cell Type: Nonhuman bone marrow, Assay Type: Chromosome aberrations, in vivo, Assay Code: CY#+, Evaluation Type: Evaluation A (Pre-1980)) was “active; positive”, the call [7] was “no conclusion” and the mutagenic call (Species/Cell Type: Rodents, Sex: Male, Assay Type: Dominant lethal test, Assay Code: DLT+, Evaluation Type: Evaluation A (Pre-1980)) was “active; positive”. For the same compound, the mutagenic call (Species/Cell Type: Vicia faba, Assay Type: Chromosome aberrations, Assay Code: VIC+D, Dose Response: With dose response, Evaluation Type: Evaluation A (Pre-1980)) was “active; positive”.
`CC(C)Cl` was tested, and the mutagenic call [4] was “inactive; negative” and the mutagenic call (Species/Cell Type: Salmonella typhimurium (one or more of the five standard strains: TA98, TA100, TA1535, TA1537, and TA1538), Assay Type: Histidine reverse gene mutation, Ames assay, Assay Code: SAL+, Evaluation Type: Evaluation A (Pre-1980)) was “active; positive”.
With `[O-2].[O-2].[O-2].[Sb+3].[Sb+3]` the mutagenic call (Species/Cell Type: Bacillus subtilis (H17 vs M45), Assay Type: Rec-assay, spot test, DNA effects (bacterial DNA repair), Assay Code: REW+, Evaluation Type: Evaluation A (Pre-1980)) was “active; positive”.
In the case of `CC(=O)N(O)c1ccc2c(ccc3ccccc32)c1`, the mutagenic call [8] is reported as “active; positive” and the call (Species/Cell Type: Nonhuman, Assay Code: CCG+L, Evaluation Type: Evaluation A (Pre-1980)) is reported as “active; positive”.
In the case of `C=C1[C@@H](C)[C@H]2[C@H](Cc3ccccc3)NC(=O)[C@]23OC(=O)/C=C/[C@H](O)CCC[C@@H](C)C/C=C/[C@H]3[C@@H]1O`, the mutagenic call (Species/Cell Type: Bacillus subtilis (H17 vs M45), Assay Type: Rec-assay, spot test, DNA effects (bacterial DNA repair), Assay Code: REW-, Evaluation Type: Evaluation A (Pre-1980)) is reported as “inactive; negative”.
With `CCCCOc1ccc(CC(=O)NOC(=O)CC)cc1` the mutagenic call [2] was “active; positive”.
In the case of `O[C@@H]1C=Cc2cc3ccc4cccc5ccc(c2[C@H]1O)c3c45`, the mutagenic call (Species/Cell Type: Chinese hamster lung (V79) cells, Assay Type: Forward gene mutation at the HPRT or ouabain locus, Assay Code: V79-*, Activation: With metabolic activation, Evaluation Type: Evaluation A (Pre-1980)) is reported as “inactive; negative”, the call [7] is reported as “no conclusion” and the mutagenic call (Species/Cell Type: Nonhuman, Assay Type: Sister-chromatid exchange (SCE) in vitro, Assay Code: SC2+, Evaluation Type: Evaluation A (Pre-1980)) is reported as “active; positive”. The mutagenic call [9] was “no conclusion” and the mutagenic call (Species/Cell Type: Syrian hamster embryo (SHE) cells, Assay Type: Cell transformation, clonal assay, Assay Code: CTCT, Evaluation Type: Evaluation A (Pre-1980)) was “no conclusion”.
`CN(C)CCC=C1c2ccccc2C=Cc2ccccc21` was tested, and the mutagenic call [9] was “no conclusion”.
`CCN(CC)Cc1cc(Br)ccc1OCC(=O)N/N=C/c1ccc(O)c(OC)c1` was tested, and the mutagenic call [10] was “no conclusion”.
In the case of `CC(=O)OC/N=[N+](/C)[O-]`, the mutagenic call (Species/Cell Type: Chinese hamster lung (V79) cells, Assay Type: Forward gene mutation at the HPRT or ouabain locus, Assay Code: V79+, Evaluation Type: Evaluation A (Pre-1980)) is reported as “active; positive”, the mutagenic call [5] is reported as “active; positive” and the mutagenic call (Species/Cell Type: Escherichia coli polA (W3119 vs P3478), Assay Type: Rec-assay, DNA effects (bacterial DNA repair), Assay Code: RE1+, Evaluation Type: Evaluation A (Pre-1980)) is reported as “active; positive”. The mutagenic call (Species/Cell Type: Fischer rat embryo (RLV/1706) cells, Assay Type: Cell transformation, viral enhanced, Assay Code: CTR+, Evaluation Type: Evaluation A (Pre-1980)) was “active; positive”, the mutagenic call (Species/Cell Type: Mouse (BALB/c-3T3) cells, Assay Type: Cell transformation, Assay Code: CTB+, Evaluation Type: Evaluation A (Pre-1980)) was “active; positive” and the mutagenic call [11] was “inactive; negative”. The call [12] was “active; positive”, the mutagenic call (Species/Cell Type: Nonhuman, Assay Type: Sister-chromatid exchange (SCE) in vitro, Assay Code: SC2+D, Dose Response: With dose response, Evaluation Type: Evaluation A (Pre-1980)) was “active; positive” and the mutagenic call (Species/Cell Type: Nonhuman, Assay Type: Sister-chromatid exchange (SCE) in vivo, Assay Code: SC3+, Evaluation Type: Evaluation B (Post-1980)) was “active; positive”. For the same compound, the mutagenic call (Species/Cell Type: Saccharomyces cerevisiae, Assay Type: Mitotic recombination or gene conversion, Assay Code: YEH+, Evaluation Type: Evaluation A (Pre-1980)) was “active; positive”, the mutagenic call (Species/Cell Type: Salmonella typhimurium, Assay Type: Forward and reverse gene mutation, host-mediated assay, Assay Code: HMA+, Evaluation Type: Evaluation A (Pre-1980)) was “active; positive” and the mutagenic call (Species/Cell Type: Syrian hamster embryo (SA7/SHE) cells, Assay Type: Cell transformation, viral enhanced, Assay Code: CT7+, Evaluation Type: Evaluation A (Pre-1980)) was “active; positive”. For the same compound, the mutagenic call (Species/Cell Type: Syrian hamster embryo (SHE) cells, Assay Type: Cell transformation, clonal assay, Assay Code: CTC+, Evaluation Type: Evaluation A (Pre-1980)) was “active; positive”.
With `CCN(CC)C(=S)SSC(=S)N(CC)CC` the mutagenic call (Species/Cell Type: Mammalian polychromatic erythrocytes, Assay Type: Micronucleus test, chromosome aberrations, Assay Code: MNTT, Evaluation Type: Evaluation B (Post-1980)) was “no conclusion” and the call [13] was “inactive; negative”.
In the case of `Cc1cc(-c2cc(C)c(N)c(C)c2)cc(C)c1N`, the mutagenic call (Species/Cell Type: Human diploid fibroblasts, Assay Type: Unscheduled DNA synthesis (UDS) in vitro, DNA effects, Assay Code: UDH-*, Activation: With metabolic activation, Evaluation Type: Evaluation A (Pre-1980)) is reported as “inactive; negative”, the mutagenic call (Species/Cell Type: Human, Assay Type: Sister-chromatid exchange (SCE) in vitro, Assay Code: SC1-, Evaluation Type: Evaluation B (Post-1980)) is reported as “inactive; negative” and the mutagenic call [6] is reported as “active; positive”. The mutagenic call [11] was “inactive; negative”, the mutagenic call [2] was “active; positive” and the mutagenic call (Species/Cell Type: Nonhuman, Assay Type: Sister-chromatid exchange (SCE) in vivo, Assay Code: SC3T, Evaluation Type: Evaluation B (Post-1980)) was “no conclusion”. For the same compound, the mutagenic call [3] was “inactive; negative” and the mutagenic call (Species/Cell Type: Tradescantia species, Assay Type: Gene mutation, Assay Code: TRM+D, Dose Response: With dose response, Evaluation Type: Evaluation A (Pre-1980)) was “active; positive”.
`CCCOc1ccc(CC(=O)NN)cc1CN(CC)CC` was tested, and the mutagenic call [10] was “no conclusion”.
`Nc1ccc(N)c(N)c1` was tested, and the mutagenic call [11] was “inactive; negative” and the mutagenic call [9] was “no conclusion”.
`O=C1CCCCCN1` was tested, and the mutagenic call (Species/Cell Type: Chinese hamster ovary (CHO) cells, Assay Type: Forward gene mutation at the HPRT locus, Assay Code: CHO-, Evaluation Type: Evaluation B (Post-1980)) was “inactive; negative” and the call [13] was “inactive; negative”.
`c1ccc(N=Nc2ccccc2)cc1` was tested, and the call [12] was “active; positive”, the mutagenic call (Species/Cell Type: Nonhuman, Assay Type: Sister-chromatid exchange (SCE) in vitro, Assay Code: SC2+D, Dose Response: With dose response, Evaluation Type: Evaluation B (Post-1980)) was “active; positive” and the mutagenic call [14] was “active; positive”.
In the case of `CCCCCCCCCCCCCC(=O)ON(C(C)=O)c1ccc2c(c1)Cc1ccccc1-2`, the mutagenic call [8] is reported as “active; positive” and the mutagenic call [9] is reported as “no conclusion”.
In the case of `c1ccc2c3c(ccc2c1)Cc1c(ccc2ccccc12)C3`, the mutagenic call [14] is reported as “active; positive”.

Reference: PubChem BioAssay AID1259408 (Genetic Toxicology Data Bank (GENE-TOX), 2018)
